The values below come from patent US8278086B2, “Enhancement of vanadium-containing phosphatase inhibitors” (Roche Diagnostics Operations, Inc., priority 2007, dated 2012).

Experiment [1] concerns phosphatases in COS7 cell lysate. Put plainly: Inhibition of phosphatases in COS7 cell lysate. It counts as biochemical. As to conditions: 1 mM orthovanadate (alone or with 27 mM mannitol), FIG. 5. How it is done: COS7 cells were collected, washed 3 times with 50 mM Hepes, 50 mM NaCl pH 7.0 and lysed using 5 ml M-Per (Pierce) for 10 min. After centrifugation the lysate was collected as the supernatant.
(§1) Subsequently, an aliquot of 10 μl was transferred from each mixture to a microwell plate. 5 μl of a solution of a test peptide (R-R-L-I-E-D-A-E-pY-A-A-R-G (SEQ ID NO: 1); 1 mM in water) and 10 μl of a buffer containing 0.1 mM CaCl2, 50 mM Tris pH 7.0 were added to each well and incubated for 30 min at 37° C. Free phosphate resulting from the enzymatic hydrolysis was then detected via addition of 100 μl of a 1M HCl solution additionally containing 0.034% [w/v] malachite green, 10 mM sodium molybdate and 3.4 [v/v] ethanol. The detection was performed for 10 min at RT while constantly agitating the microwell plate. Relative concentrations of free phosphate were detected following the determination of the extinction (620 nm) of each reaction well.

A further experiment concerns phosphatase. Particulars: in the presence of complex-forming reagents like EDTA; cited from earlier work.
The subject of experiment [2] is phosphatases in insect cell (SF9) lysate. In words: Inhibition of phosphatases in insect cell lysate. The format is biochemical. Particulars: 1 mM orthovanadate (alone or with 27 mM mannitol), FIG. 4. How it is done: 270 mg insect cells (SF9) were collected, washed 3 times with 50 mM Hepes, 50 mM NaCl pH 7.0 and lysed using 2.5 ml M-Per (Pierce) for 10 min. After centrifugation the lysate was collected as the supernatant.
as §1, with “mixture into a well of” for “mixture to”, “a 1 M” for “a 1M”, “and 3.4%” for “and 3.4”

Each structure is given as a SMILES string.

For the molecule `[O]=[V]([O-])([O-])[O-]` [Na3VO4, orthovanadate], the “phosphatase activity (residual)” value in experiment [1] amounted to 52%; in experiment [2] it was 14%. The “factor by which the phosphatase inhibiting effect is reduced” value with phosphatase is reported as “about 1,000”.
